Assay type in all cases: functional
The subject of assay [1] is Streptococcus pneumoniae. Nature of the assay: Antibacterial activity against Streptococcus pneumoniae ATCC 6305 after 20 to 24 hrs by two-fold microdilution method. On the technique in general: Broth dilution looks for growth in wells or tubes with falling amounts of substance.
The test system of assay [2] is Staphylococcus epidermidis. Kind of assay: Antibacterial activity against Staphylococcus epidermidis ATCC 12228 after 20 to 24 hrs by two-fold microdilution method.
Assay [3] deals with Staphylococcus aureus. Kind of assay: Antibacterial activity against […] Staphylococcus aureus ATCC 25923 after 20 to 24 hrs by two-fold microdilution method.
Assay [4] relates to Staphylococcus haemolyticus. Nature of the assay: Antibacterial activity against Staphylococcus haemolyticus CICC 10373 after 20 to 24 hrs by two-fold microdilution method.
For assay [5], the system named is Staphylococcus aureus. Nature of the assay: Antibacterial activity against methicillin-resistant Staphylococcus aureus ATCC 43300 after 20 to 24 hrs by two-fold microdilution method.
Assay [6] deals with Escherichia coli. Kind of assay: Antibacterial activity against Escherichia coli ATCC 25922 after 20 to 24 hrs by two-fold microdilution method.
For assay [7], the system named is Streptococcus pyogenes. Kind of assay: Antibacterial activity against Streptococcus pyogenes ATCC 19615 after 20 to 24 hrs by two-fold microdilution method.
Assay [8] relates to Enterococcus faecalis. Nature of the assay: Antibacterial activity against Enterococcus faecalis ATCC 29212 after 20 to 24 hrs by two-fold microdilution method.

≈ marks a conversion by molar mass, not a printed value.

Regarding `O=C1c2cccnc2C(=O)c2c1c(C(=O)OCCCCN1CCCCC1)c1ccc(Br)cn21`, the MIC came out at 4 µg/mL (≈ 7.84 µM) in assay [1]; 0.125 µg/mL (≈ 0.245 µM) in assay [2]; 1 µg/mL (≈ 1.96 µM) in assay [3]; 2 µg/mL (≈ 3.92 µM) in assay [4]; 1 µg/mL (≈ 1.96 µM) in assay [5]; 4 µg/mL (≈ 7.84 µM) in assay [6]. The MIC turned out to be 16 µg/mL (≈ 31.3 µM) in assay [7] and 1 µg/mL (≈ 1.96 µM) in assay [8].
On to `O=C1c2cccnc2C(=O)c2c1c(C(=O)OCC(O)CO)c1ccc(Br)cn21` (stereo not drawn), for which the MIC was 16 µg/mL (≈ 35.9 µM) in assay [1]; 1 µg/mL (≈ 2.25 µM) in assay [2]; 2 µg/mL (≈ 4.49 µM) in assay [3]; 4 µg/mL (≈ 8.98 µM) in assay [4]; 2 µg/mL (≈ 4.49 µM) in assay [5]; 4 µg/mL (≈ 8.98 µM) in assay [6]. The MIC in assay [7] is 16 µg/mL (≈ 35.9 µM); in assay [8], above 16 µg/mL.
With `CN1CCN(CCOC(=O)c2c3c(n4cc(Br)ccc24)C(=O)c2ncccc2C3=O)CC1`, the MIC in assay [1] was found to be 16 µg/mL (≈ 32.2 µM); in assay [2] it was 1 µg/mL (≈ 2.01 µM); in assay [3], 2 µg/mL (≈ 4.02 µM); in assay [4] it was 8 µg/mL (≈ 16.1 µM); in assay [5], 2 µg/mL (≈ 4.02 µM); in assay [6] it was 1 µg/mL (≈ 2.01 µM). For the same compound, the MIC in assay [7] and in assay [8] was 8 µg/mL (≈ 16.1 µM) throughout.
On to `CCOC(=O)c1c2c(n3cc(Br)ccc13)C(=O)c1nccnc1C2=O`, for which the figures for the MIC in assay [3] and in assay [6] were 0.25 µg/mL (≈ 0.625 µM) and 16 µg/mL (≈ 40 µM), respectively.
`CCOC(=O)c1c2c(n3cc(Br)ccc13)C(=O)c1ncccc1C2=O`: the MIC in assay [1] is 4 µg/mL (≈ 10 µM); in assay [2], 0.063 µg/mL (≈ 0.158 µM); in assay [3] it was 0.063 µg/mL (≈ 0.158 µM); in assay [4] it was 0.125 µg/mL (≈ 0.313 µM); in assay [5], 0.063 µg/mL (≈ 0.158 µM); in assay [6], above 16 µg/mL. For the same compound, the figures for the MIC in assay [7] and in assay [8] were 4 µg/mL (≈ 10 µM) and 0.016 µg/mL (≈ 0.0401 µM), respectively.
In the case of `CN(C)CCCCOC(=O)c1c2c(n3cc(Br)ccc13)C(=O)c1ncccc1C2=O`, the MIC in assay [1] was 8 µg/mL (≈ 17 µM); in assay [2], 0.25 µg/mL (≈ 0.532 µM); in assay [3], 4 µg/mL (≈ 8.5 µM); in assay [4], 4 µg/mL (≈ 8.5 µM); in assay [5], 2 µg/mL (≈ 4.25 µM); in assay [6] it was 1 µg/mL (≈ 2.13 µM). Moreover, the MIC in assay [7] worked out at 16 µg/mL (≈ 34 µM); in assay [8], 2 µg/mL (≈ 4.25 µM).
`O=C1c2cccnc2C(=O)c2c1c(C(=O)OCCCCCN1CCCCC1)c1ccc(Br)cn21`: the MIC in assay [1] stood at 4 µg/mL (≈ 7.63 µM); in assay [2], 0.125 µg/mL (≈ 0.238 µM); in assay [3], 1 µg/mL (≈ 1.91 µM); in assay [4], 1 µg/mL (≈ 1.91 µM); in assay [5], 2 µg/mL (≈ 3.81 µM); in assay [6] it was 4 µg/mL (≈ 7.63 µM). Besides, the MIC is 8 µg/mL (≈ 15.3 µM) in assay [7] and 0.5 µg/mL (≈ 0.953 µM) in assay [8].
In the case of `CCOC(=O)c1c2c(n3cccc(Br)c13)C(=O)c1nccnc1C2=O`, the results for the MIC in assay [3] and in assay [6] were 1 µg/mL (≈ 2.5 µM) and above 16 µg/mL, respectively.
Take `CC1(C)S[C@@H]2[C@H](NC(=O)Cc3ccccc3)C(=O)N2[C@H]1C(=O)O` [PENICILLIN G]: the MIC in assay [1] is at most 0.0078 µg/mL; in assay [2], 8 µg/mL (≈ 23.9 µM); in assay [3], 0.063 µg/mL (≈ 0.188 µM); in assay [4], at most 0.0078 µg/mL; in assay [5], above 16 µg/mL; in assay [6], above 16 µg/mL. The MIC is at most 0.0078 µg/mL in assay [7] and 1 µg/mL (≈ 2.99 µM) in assay [8].
Regarding `O=C1c2cccnc2C(=O)c2c1c(C(=O)OCCCCCCN1CCCC1)c1ccc(Br)cn21`, the MIC was 1 µg/mL (≈ 1.91 µM) in assay [1]; at most 0.0078 µg/mL in assay [2]; 0.5 µg/mL (≈ 0.953 µM) in assay [3]; 2 µg/mL (≈ 3.81 µM) in assay [4]; 0.5 µg/mL (≈ 0.953 µM) in assay [5]; 1 µg/mL (≈ 1.91 µM) in assay [6]. Further, the figures for the MIC in assay [7] and in assay [8] were 4 µg/mL (≈ 7.63 µM) and 0.5 µg/mL (≈ 0.953 µM), respectively.
On to `CN(C)CCCCCCOC(=O)c1c2c(n3cc(Br)ccc13)C(=O)c1ncccc1C2=O`, for which the MIC in assay [1] is 2 µg/mL (≈ 4.01 µM); in assay [2], at most 0.0078 µg/mL; in assay [3], 0.25 µg/mL (≈ 0.502 µM); in assay [4] it was 0.5 µg/mL (≈ 1 µM); in assay [5], 0.25 µg/mL (≈ 0.502 µM); in assay [6] it was 2 µg/mL (≈ 4.01 µM). Also, the MIC in assay [7] was determined as 8 µg/mL (≈ 16.1 µM); in assay [8], 0.5 µg/mL (≈ 1 µM).
For `O=C1c2cccnc2C(=O)c2c1c(C(=O)OCCCN1CCCCC1)c1ccc(Br)cn21`, the MIC was 16 µg/mL (≈ 32.2 µM) in assay [1]; 0.5 µg/mL (≈ 1.01 µM) in assay [2]; 4 µg/mL (≈ 8.06 µM) in assay [3]; 2 µg/mL (≈ 4.03 µM) in assay [4]; 4 µg/mL (≈ 8.06 µM) in assay [5]; 8 µg/mL (≈ 16.1 µM) in assay [6]. For the same compound, the MIC in assay [7] was 16 µg/mL (≈ 32.2 µM); in assay [8], 4 µg/mL (≈ 8.06 µM).
`O=C1c2cccnc2C(=O)c2c1c(C(=O)OCCCO)c1ccc(Br)cn21`: the MIC was 8 µg/mL (≈ 18.6 µM) in assay [1]; 0.125 µg/mL (≈ 0.291 µM) in assay [2]; 0.125 µg/mL (≈ 0.291 µM) in assay [3]; 0.25 µg/mL (≈ 0.582 µM) in assay [4]; 0.25 µg/mL (≈ 0.582 µM) in assay [5]; 8 µg/mL (≈ 18.6 µM) in assay [6]. For the same compound, the MIC in assay [7] amounted to 8 µg/mL (≈ 18.6 µM); in assay [8], 0.25 µg/mL (≈ 0.582 µM).
Turning to `O=C1c2cccnc2C(=O)c2c1c(C(=O)OCCCN1CCOCC1)c1ccc(Br)cn21`, the MIC in assay [1] was determined as 16 µg/mL (≈ 32.1 µM); in assay [2], 0.25 µg/mL (≈ 0.502 µM); in assay [3], 0.5 µg/mL (≈ 1 µM); in assay [4] it was 4 µg/mL (≈ 8.03 µM); in assay [5] it was 0.5 µg/mL (≈ 1 µM); in assay [6], 16 µg/mL (≈ 32.1 µM). In addition, the MIC is 16 µg/mL (≈ 32.1 µM) in assay [7] and 2 µg/mL (≈ 4.01 µM) in assay [8].
On to `CN1CCN(CCCCOC(=O)c2c3c(n4cc(Br)ccc24)C(=O)c2ncccc2C3=O)CC1`, for which the MIC in assay [1] was 2 µg/mL (≈ 3.81 µM); in assay [2], 0.031 µg/mL (≈ 0.059 µM); in assay [3], 0.25 µg/mL (≈ 0.476 µM); in assay [4], 1 µg/mL (≈ 1.9 µM); in assay [5], 0.5 µg/mL (≈ 0.952 µM); in assay [6], 8 µg/mL (≈ 15.2 µM). Further, the MIC worked out at 8 µg/mL (≈ 15.2 µM) in assay [7] and 0.5 µg/mL (≈ 0.952 µM) in assay [8].
Regarding `CN1CCN(CCCOC(=O)c2c3c(n4cc(Br)ccc24)C(=O)c2ncccc2C3=O)CC1`, the MIC in assay [1] is 16 µg/mL (≈ 31.3 µM); in assay [2] it was 4 µg/mL (≈ 7.82 µM); in assay [3], 8 µg/mL (≈ 15.6 µM); in assay [4] it was 16 µg/mL (≈ 31.3 µM); in assay [5], 4 µg/mL (≈ 7.82 µM); in assay [6], above 16 µg/mL. Besides, the figures for the MIC in assay [7] and in assay [8] were 16 µg/mL (≈ 31.3 µM) and above 16 µg/mL, respectively.
Take `COP(=O)(CCOC(=O)c1c2c(n3cc(Br)ccc13)C(=O)c1ncccc1C2=O)OC`: the MIC worked out at 16 µg/mL (≈ 31.5 µM) in assay [1]; 0.5 µg/mL (≈ 0.986 µM) in assay [2]; 1 µg/mL (≈ 1.97 µM) in assay [3]; 1 µg/mL (≈ 1.97 µM) in assay [4]; 1 µg/mL (≈ 1.97 µM) in assay [5]; 16 µg/mL (≈ 31.5 µM) in assay [6]. For the same compound, the MIC in assay [7] amounted to 16 µg/mL (≈ 31.5 µM); in assay [8], 0.5 µg/mL (≈ 0.986 µM).
For `CN1CCN(CCCCCOC(=O)c2c3c(n4cc(Br)ccc24)C(=O)c2ncccc2C3=O)CC1`, the MIC in assay [1] is 2 µg/mL (≈ 3.71 µM); in assay [2], at most 0.0078 µg/mL; in assay [3], 0.25 µg/mL (≈ 0.463 µM); in assay [4], 0.25 µg/mL (≈ 0.463 µM); in assay [5], 0.25 µg/mL (≈ 0.463 µM); in assay [6] it was 2 µg/mL (≈ 3.71 µM). The MIC in assay [7] amounted to 8 µg/mL (≈ 14.8 µM); in assay [8], 0.25 µg/mL (≈ 0.463 µM).
For `O=C1c2cccnc2C(=O)c2c1c(C(=O)OCCCCN1CCCC1)c1ccc(Br)cn21`, the MIC turned out to be 4 µg/mL (≈ 8.06 µM) in assay [1]; 0.125 µg/mL (≈ 0.252 µM) in assay [2]; 2 µg/mL (≈ 4.03 µM) in assay [3]; 4 µg/mL (≈ 8.06 µM) in assay [4]; 1 µg/mL (≈ 2.01 µM) in assay [5]; 1 µg/mL (≈ 2.01 µM) in assay [6]. Also, the MIC in assay [7] turned out to be 8 µg/mL (≈ 16.1 µM); in assay [8] it was 1 µg/mL (≈ 2.01 µM).
With `CN(C)CCCOC(=O)c1c2c(n3cc(Br)ccc13)C(=O)c1ncccc1C2=O`, the MIC in assay [1] was determined as 8 µg/mL (≈ 17.5 µM); in assay [2] it was 0.25 µg/mL (≈ 0.548 µM); in assay [3] it was 1 µg/mL (≈ 2.19 µM); in assay [4], 2 µg/mL (≈ 4.38 µM); in assay [5], 1 µg/mL (≈ 2.19 µM); in assay [6], 1 µg/mL (≈ 2.19 µM). For the same compound, the minimum inhibitory concentration (MIC) is 16 µg/mL (≈ 35.1 µM) in assay [7] and 2 µg/mL (≈ 4.38 µM) in assay [8].

Usually MIC stands for the lowest concentration found to suppress growth. The low end stands for greater potency, the high end for weaker potency.

These data come from ChEMBL document CHEMBL4004803, “Syntheses and antibacterial activity of soluble 9-bromo substituted indolizinoquinoline-5,12-dione derivatives” (Eur J Med Chem, 2017).
